Source: PMC9100651, “Focused Design of Novel Cyclic Peptides Endowed with GABARAP-Inhibiting Activity” (International Journal of Molecular Sciences, 2022)
Where “and” joins values, the source holds several entries; their conditions need not be identical. Equal values may be shown once. Read-outs that look alike come from different tables or passages of the source. Bridge positions count the residues as written; N and C are the ends. Peptide text beside a SMILES is read from it.

Legend:
[1] = test system: PC-3 prostate cancer cells; assay: MTS cell viability assay on PC-3 cells; details: for cell viability: PC-3, highest tested concentration (10 µM), 96 h post-treatment, % of untreated control
Description: (§1) PC-3 prostate cancer cell line was purchased from the American Type Culture Collection (ATCC, Manassas, VA, USA), cultured at 37 °C and 5% CO2 in Ham’s F-12 K (Kaighn’s) basal medium (Gibco Laboratories, Grand Island, NY, USA), supplemented with 10% FBS (Gibco Laboratories) and 1% of 100 U/mL penicillin/streptomycin (Gibco Laboratories).
(§2) PC-3 and PNT2 cell lines were seeded at a density of 1 × 10^4 cells/well in 96-well plates and maintained under standard growth conditions.
(§3) After 96 h, cell viability was assessed by MTS assay according to the manufacturer’s protocol (Cell Titer 96 Aqueous One Solution Cell Proliferation Assay; Promega, Nacka, Sweden) using a 96-well-plate spectrophotometer (Varioskan Flash Multimode Reader; Thermo-Scientific, Waltham, MA, USA) set at λ = 490 nm. The absorbance value of untreated cells was set at 100% (control), and the viability of treated cells was expressed as a percentage of the control. Three independent experiments were performed in triplicate for each condition.

[2] = target: T1, 6-His-tagged recombinant GABARAP (Homo sapiens, UniProt O95166); assay: Microscale Thermophoresis (MST) binding affinity
T1 construct: purchased Abcam, Cambridge, UK
T1 sequence (O95166 whole entry): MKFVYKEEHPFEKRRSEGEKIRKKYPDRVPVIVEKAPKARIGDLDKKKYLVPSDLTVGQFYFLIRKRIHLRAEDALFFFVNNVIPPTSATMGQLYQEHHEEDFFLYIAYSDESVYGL
Description: The binding affinity (Kd) between the target protein (6-His-tagged recombinant GABARAP, produced by Abcam, Cambridge, UK) and peptide ligands (K1, WC8 and WC10, acquired by ProteoGenix, Schiltigheim, France) was measured by MST [22]. Briefly, histidine-tagged GABARAP was labeled by using a His-tag-specific dye for 30 min at room temperature, using either the conventional Monolith His-Tag Labeling Kit RED-tris-NTA (MO-L008) or the newer Monolith His-Tag Labeling Kit RED-tris-NTA 2nd Generation (MO-L018), both purchased from NanoTemper Technologies (GmbH, München, Germany). MST experiments were performed on both a Monolith NT.115 and a Monolith NT.115Pico instrument (NanoTemper Technologies, München, GmbH), in order to further increase the statistical significance of the attained results.
A fixed concentration of the labeled GABARAP protein was mixed with 16 1:1 serial dilutions of K1, WC8, and WC10. The protein and the peptide were incubated for 60–90 min at room temperature. The MST analysis was performed using standard capillaries, with the following experimental settings: an MST power of 40% (to create a temperature gradient) and a different excitation power in relation to the considered system and instrument (see Supplementary Materials for details, Table S1). Kd values were calculated from compound concentration-dependent changes of normalized fluorescence (Fnorm). In all the experiments, both the protein and the peptides were dissolved in PBS-T buffer (phosphate-buffered saline + 0.05% Tween™ 20; NanoTemper Technologies, GmbH) and 2.5% DMSO. The auto-fluorescence of each peptide was evaluated before proceeding to the determination of the Kd. At least two independent experiments were performed to calculate the Kd values. Data were processed using the NanoTemper MO.Affinity Analysis software (version 2.3), and the fitting was performed by using the Kd model. […]
Table S1. Summary table of the Microscale Thermophoresis (MST) experiments performed on both
Monolith NT.115 and Monolith NT.115Pico instruments. At least two independent experiments were
performed to compute the Kd value.
Protein Ligand MST Exc. Temp. [Ligand] Range SNR* Kd (µM)

GABARAP [3] = target: T2, GABARAP (Homo sapiens, UniProt O95166); assay: Surface Plasmon Resonance (SPR), steady-state affinity; assay type: binding
T2 sequence (O95166 whole entry): as above
Description: SPR experiments were performed on a BIAcore 8K system (Cytiva, Marlborough, MA, USA). GABARAP was dissolved in 10 mM of sodium acetate (pH 5.5) and amine-coupled to a CM5 sensor chip (GE Healthcare, Chicago, IL, USA). The reference peptide K1 was dissolved in the running buffer (10 mM Hepes, pH 7.4, 150 mM NaCl) at concentrations of 10 μM to 156 nM. Gradient concentrations of K1 were injected at a flow rate of 30 μL/min, contact time 120 s at 25 °C. WC8 and WC10 were both dissolved in the running buffer (Sigma-Aldrich Dulbecco’s PBS, pH 7.4, 0.005% Tween™ and 5% DMSO; Sigma-Aldrich, St. Louis, MO, USA) at concentrations of 100 μM to 6.25 μM and 12.5 μM to 390 nM, respectively. Gradient concentrations of the peptides were then flowed over the chip with a flow rate of 30 μL/min, contact time 120 s at 25 °C. […] Two independent experiments for WC8 and WC10 were performed. The binding kinetics were evaluated using the BIAevaluation software package and applying the 1:1 steady-state affinity model.

[4] = Solubility and stability in water and PBS buffer
Description: Initially, we verified that the peptides were water soluble and stable in the buffer in which the recombinant GABARAP protein was solved.

GABARAP [5] = target: T2, GABARAP; parameters: method as in PMID 29867141; details: cited from earlier work
[6] = test system: PC-3 prostate cancer cells; details: human, 96 h, 10 µM
Description: as §1, §2, §3

GABARAP [7] = target: T2, GABARAP; parameters: method as in PMID 18638487; details: SPR; cited from earlier work
[8] = Kd (MST), Monolith NT.115Pico, GABARAP 10 nM, 25°C
[9] = Kd on GABARAP, consistent among MST and SPR

**Q.** Which cell viability [1] does the source give for `CC[C@H](C)[C@@H]1NC(=O)[C@@H](NC(=O)[C@H](CCC(=O)O)NC(=O)[C@H](Cc2c[nH]c3ccccc23)NC(=O)CNC(=O)[C@@H](N)Cc2c[nH]c3ccccc23)CSSC[C@@H](C(=O)O)NC(=O)[C@H](CCC(=O)O)NC(=O)[C@H](CC(=O)O)NC(=O)[C@H](Cc2ccccc2)NC1=O` [WC10, WGWECIFDEC] (H-WGWECIFDEC-OH; disulfide 5-10; N-terminus and C-terminus assumed) here?
**A.** Its cell viability is 22.5%.

**Q.** What about the Kd ([2]; Kd (MST), Monolith NT.115, 25°C, PBS-T, 2.5% DMSO) of the same compound?
**A.** Its Kd is 4.2 ± 1.8 µM.

**Q.** What about the Kd [2, 8] of the same compound?
**A.** Its Kd is 3.8 ± 1.5 µM.

**Q.** What about the Kd [2, 9] of the same compound?
**A.** Its Kd is ~4 µM.

**Q.** And the “Kd on GABARAP” value ([2]; consistent among MST and SPR)?
**A.** Its value is “low micromolar range”.

**Q.** And the Kd (GABARAP [3])?
**A.** Its Kd is 4.9 µM.

**Q.** What about the “stability in water and PBS” value [4] of the same compound?
**A.** The value was “excellent stability”.

**Q.** For `CC[C@H](C)[C@@H]1NC(=O)[C@@H](NC(=O)[C@H](CCC(=O)O)NC(=O)[C@@H](N)Cc2c[nH]c3ccccc23)CSSC[C@@H](C(=O)O)NC(=O)[C@H](CCC(=O)O)NC(=O)[C@H](CC(=O)O)NC(=O)[C@H](Cc2ccccc2)NC1=O` [WC8, WECIFDEC] (H-WECIFDEC-OH; disulfide 3-8; N-terminus assumed), which “efficacy on PC-3 cells compared to Paclitaxel” value ([1]; PC-3, from 1 to 10 µM, 96 h) is on record?
**A.** Its value is “high efficacy”.

**Q.** What about the cell viability [1] of the same compound?
**A.** The cell viability was 24.06%.

**Q.** And the Kd [2, 8]?
**A.** The Kd was 20.8 ± 2.7 µM.

**Q.** What about the Kd [2, 9] of the same compound?
**A.** Its Kd is 22 µM.

**Q.** What about the “Kd on GABARAP” value ([2]; consistent among MST and SPR) of the same compound?
**A.** The value was “low micromolar range”.

**Q.** What about the Kd (GABARAP [3]) of the same compound?
**A.** Its Kd is 24.8 µM.

**Q.** What about the “stability in water and PBS” value [4] of the same compound?
**A.** The value was “excellent stability”.

**Q.** With EEWVIVSDEEIEEARQKA [AnkB-LIR] as the compound, how does the Kd (GABARAP [5]) read?
**A.** The Kd was 0.00027 µM.

**Q.** For `CC(C)C[C@H](NC(=O)[C@H](Cc1c[nH]cn1)NC(=O)[C@H](CCC(=O)O)NC(=O)[C@H](Cc1c[nH]c2ccccc12)NC(=O)[C@@H](NC(=O)[C@H](Cc1ccc(O)cc1)NC(=O)[C@@H](NC(=O)[C@H](C)NC(=O)[C@@H](N)CC(=O)O)[C@@H](C)O)[C@@H](C)O)C(=O)N[C@@H](C)C(=O)N[C@@H](Cc1c[nH]c2ccccc12)C(=O)N1CCC[C@H]1C(=O)O` [Peptide K1, DATYTWEHLAWP, reference compound], which cell viability [6] is on record?
**A.** Its cell viability is 27.16%.

**Q.** What about the Kd ([2]; Monolith NT.115, 25°C, PBS-T, 2.5% DMSO, read-out: Kd (MST)) of the same compound?
**A.** The Kd was 2.6 ± 0.4 µM.

**Q.** What about the Kd ([2]; Monolith NT.115Pico, GABARAP 10 nM, 25°C, read-out: Kd (MST)) of the same compound?
**A.** The Kd was 3.5 ± 0.9 µM.

**Q.** What about the Kd ([2]; consistent among MST and SPR, read-out: Kd on GABARAP) of the same compound?
**A.** Its Kd is ~3 µM.

**Q.** What about the Kd (GABARAP [3]; BIAcore 8K, steady-state analysis, 25 °C, read-out: Kd (SPR)) of the same compound?
**A.** The Kd was 3 µM.

**Q.** What about the Kd (GABARAP [7]) of the same compound?
**A.** Its Kd is 0.39 µM and ~0.39 µM.
